Data from ChEMBL document CHEMBL1201862, “PubChem BioAssay data set” (2004).
The source made the active and inactive calls.

Columns and labels:
[1] = intracellular Trypanosoma cruzi inhibitors in host cells – cell-based, plate reader, cherry-pick samples, set 3, dose response (AID 651818); type: functional;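 further: compounds incubated with infected cells for about four days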
[2] = inhibitors of firefly luciferase expression or activity, dose response, H4 neuroglioma cells, luminescence (AID 1990); type: functional, cell-based
[3] = Luminescence Cell-Based Dose Response HTS to Identify Inhibitors of 5'UTR Stem-Loop Driven Prion Protein mRNA Translation in H4 Neuroglioblastoma Cells. [Related pubchem assays: 1827 (Project Summary), 1813 (Primary HTS)]; type: functional
[4] = inhibitors of SNCA 5'UTR-driven reporter translation, confirmation, H4 neuroglioma cells, luminescence (AID 1988); type: functional, cell-based
[5] = molecular target: Prothrombin (Homo sapiens, UniProt P00734); assay: Thrombin 1536 HTS Dose Response Confirmation. [Related pubchem assays: 1046 (Thrombin 1536 HTS; hits were confirmed in this assay)]; type: functional
[6] = molecular target: T1, Leucine aminopeptidase (Plasmodium falciparum 3D7, UniProt Q8IL11); assay: P. falciparum M17LAP inhibitors, primary screen, biochemical, fluorogenic H-Leu-NHMec substrate, 1536-well (AID 1619); type: functional
T1 sequence (Q8IL11 whole entry): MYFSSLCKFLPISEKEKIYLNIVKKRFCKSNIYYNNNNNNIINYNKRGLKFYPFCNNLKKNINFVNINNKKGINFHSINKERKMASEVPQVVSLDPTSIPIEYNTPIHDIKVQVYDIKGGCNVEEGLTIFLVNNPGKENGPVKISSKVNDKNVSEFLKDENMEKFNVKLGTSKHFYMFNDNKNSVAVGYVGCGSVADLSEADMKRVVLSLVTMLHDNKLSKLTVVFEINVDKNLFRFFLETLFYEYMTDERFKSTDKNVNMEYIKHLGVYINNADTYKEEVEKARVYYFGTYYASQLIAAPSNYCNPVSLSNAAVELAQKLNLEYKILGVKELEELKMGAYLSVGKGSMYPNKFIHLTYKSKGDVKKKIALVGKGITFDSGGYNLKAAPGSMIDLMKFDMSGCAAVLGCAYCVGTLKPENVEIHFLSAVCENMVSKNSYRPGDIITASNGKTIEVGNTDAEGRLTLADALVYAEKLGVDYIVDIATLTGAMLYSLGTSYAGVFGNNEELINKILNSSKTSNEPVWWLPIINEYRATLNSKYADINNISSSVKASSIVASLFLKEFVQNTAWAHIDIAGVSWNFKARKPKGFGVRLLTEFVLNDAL

[7] = molecular target: T2, Aspartyl aminopeptidase (Plasmodium falciparum 3D7, UniProt Q8I2J3); assay: Counterscreen for inhibitors of M1 and M17 aminopeptidases: QFRET-based biochemical high throughput dose response assay for inhibitors of the Plasmodium falciparum M18 Aspartyl Aminopeptidase (PFM18AAP). [Related PubChem assays: 1619 (Screening assay (M17LAP inhibitors).), 1445 (Screening assay (M1AAP inhibitors).)]
T2 sequence (Q8I2J3 whole entry): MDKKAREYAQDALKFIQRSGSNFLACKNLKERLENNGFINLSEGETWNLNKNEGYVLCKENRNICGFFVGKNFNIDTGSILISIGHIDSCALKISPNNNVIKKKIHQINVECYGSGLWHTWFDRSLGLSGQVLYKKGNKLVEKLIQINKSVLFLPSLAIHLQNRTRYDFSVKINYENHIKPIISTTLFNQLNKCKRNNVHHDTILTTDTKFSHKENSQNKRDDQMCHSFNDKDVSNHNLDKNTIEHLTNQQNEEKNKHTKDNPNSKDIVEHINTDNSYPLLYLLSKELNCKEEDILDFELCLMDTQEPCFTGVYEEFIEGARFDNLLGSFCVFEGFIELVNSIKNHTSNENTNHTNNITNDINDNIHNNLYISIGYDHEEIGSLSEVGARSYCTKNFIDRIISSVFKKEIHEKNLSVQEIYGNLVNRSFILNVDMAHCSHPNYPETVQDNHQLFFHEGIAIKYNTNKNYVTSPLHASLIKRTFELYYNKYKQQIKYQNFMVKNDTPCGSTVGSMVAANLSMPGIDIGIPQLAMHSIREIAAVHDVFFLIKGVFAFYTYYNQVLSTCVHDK

[8] = molecular target: Procathepsin L (Homo sapiens, UniProt P07711); assay: cathepsin L inhibitors, dose response, counter-screen for M1/M17 aminopeptidase inhibitor project, biochemical, QFRET, 1536-well (AID 2214)
[9] = molecular target: T3, Short transient receptor potential channel 4 (Mus musculus, UniProt Q9QUQ5); assay: mouse TRPC4 channel inhibitors, dose response, cell-based, HEK293 TRPC4/mu-opioid, Fluo-4 calcium (AID 434942); type: functional;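 further: potency of inhibitors blocking the TRPC4 calcium response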
T3 sequence (Q9QUQ5 whole entry): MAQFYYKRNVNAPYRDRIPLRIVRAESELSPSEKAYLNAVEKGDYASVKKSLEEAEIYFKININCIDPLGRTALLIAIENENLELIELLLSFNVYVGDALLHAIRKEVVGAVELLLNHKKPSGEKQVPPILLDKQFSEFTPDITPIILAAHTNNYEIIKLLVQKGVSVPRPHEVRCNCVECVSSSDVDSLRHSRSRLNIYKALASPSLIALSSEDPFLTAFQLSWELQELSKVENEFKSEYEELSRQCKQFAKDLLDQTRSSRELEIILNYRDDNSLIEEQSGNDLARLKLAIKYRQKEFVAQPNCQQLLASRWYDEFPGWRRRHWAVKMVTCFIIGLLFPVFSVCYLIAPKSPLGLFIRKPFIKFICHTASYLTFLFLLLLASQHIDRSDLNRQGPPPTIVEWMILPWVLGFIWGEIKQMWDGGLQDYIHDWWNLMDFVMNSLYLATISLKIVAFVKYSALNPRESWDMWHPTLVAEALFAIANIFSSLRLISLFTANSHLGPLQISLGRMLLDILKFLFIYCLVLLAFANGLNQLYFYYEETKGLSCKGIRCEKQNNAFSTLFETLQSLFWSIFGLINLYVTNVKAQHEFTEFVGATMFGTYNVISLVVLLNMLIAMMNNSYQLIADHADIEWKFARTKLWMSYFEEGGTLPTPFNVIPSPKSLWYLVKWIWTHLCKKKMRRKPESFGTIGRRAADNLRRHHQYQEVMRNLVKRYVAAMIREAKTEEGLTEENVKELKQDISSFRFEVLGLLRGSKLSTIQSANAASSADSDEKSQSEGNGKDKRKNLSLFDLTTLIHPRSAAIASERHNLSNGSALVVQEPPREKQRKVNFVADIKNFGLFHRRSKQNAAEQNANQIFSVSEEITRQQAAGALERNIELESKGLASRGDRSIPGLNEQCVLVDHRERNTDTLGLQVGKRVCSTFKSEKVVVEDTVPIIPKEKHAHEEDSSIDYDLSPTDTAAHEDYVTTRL

[10] = inhibitors of HIV Env-driven cell fusion, dose response, cherry-pick (AID 652057); type: functional, cell-based
[11] = ZM109 Env clade C HIV-1 fusion inhibitors, dose response, HeLa effector, CEM target cells, luciferase, cherry-pick (AID 652058); type: functional, cell-based
[12] = off-target signal loss in HeLa-CEM21 co-culture – HeLa F-luc CTL cells, cherry-picked, counter-screen for HIV-1 Env fusion inhibitor project, dose response (AID 652040); type: functional, cell-based;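 further: potency for signal decrease marking cytotoxic or nonspecific inhibition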
[13] = inhibitors of clade B AD8 Env fusion, dose response, cell-based, cherry-pick (AID 652062); type: functional;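 further: luciferase signal from cell-cell fusion driven by HIV-1 clade B AD8 Env; potency is for inhibitors of fusion seen as a drop in luminescence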
[14] = system: Vero; assay: host cell cytotoxicity of antiviral hits, dose response, cytotoxicity control for West Nile virus antiviral project, secondary assay (AID 1650); type: functional; conditions: Chlorocebus sabaeus
[15] = Shn3 3'UTR reporter inhibitors, dose response, cell-based, Clone20 osteoblasts, firefly luciferase, cherry-picked (AID 624132); type: functional;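 further: firefly luciferase luminescence from reporter carrying the Shn3 3'UTR in osteoblasts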
[16] = control 3'UTR Renilla luciferase suppression, dose response, counter-screen for Shn3 inhibitor project, cell-based, Clone20-Shn3RL, cherry-picked (AID 624133); type: functional
[17] = molecular target: Paired box protein Pax-8 (Homo sapiens, UniProt Q06710); assay: inhibitors of PAX8-driven TPO luciferase reporter, dose response, RMG-I cells, cherry-pick (AID 687027); type: functional, cell-based;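 further: luciferase reporter driven by Pax8 target thyroperoxidase promoter measured by SteadyGlo luminescence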
[18] = molecular target: T4, Aminopeptidase N (Plasmodium falciparum FcB1/Columbia, UniProt O96935); assay: P. falciparum M1AAP inhibitors, biochemical, fluorogenic H-Leu-NHMec substrate, 1536-well (AID 1445); design: species or system Plasmodium falciparum 3D7, 3D7
T4 sequence (O96935 whole entry): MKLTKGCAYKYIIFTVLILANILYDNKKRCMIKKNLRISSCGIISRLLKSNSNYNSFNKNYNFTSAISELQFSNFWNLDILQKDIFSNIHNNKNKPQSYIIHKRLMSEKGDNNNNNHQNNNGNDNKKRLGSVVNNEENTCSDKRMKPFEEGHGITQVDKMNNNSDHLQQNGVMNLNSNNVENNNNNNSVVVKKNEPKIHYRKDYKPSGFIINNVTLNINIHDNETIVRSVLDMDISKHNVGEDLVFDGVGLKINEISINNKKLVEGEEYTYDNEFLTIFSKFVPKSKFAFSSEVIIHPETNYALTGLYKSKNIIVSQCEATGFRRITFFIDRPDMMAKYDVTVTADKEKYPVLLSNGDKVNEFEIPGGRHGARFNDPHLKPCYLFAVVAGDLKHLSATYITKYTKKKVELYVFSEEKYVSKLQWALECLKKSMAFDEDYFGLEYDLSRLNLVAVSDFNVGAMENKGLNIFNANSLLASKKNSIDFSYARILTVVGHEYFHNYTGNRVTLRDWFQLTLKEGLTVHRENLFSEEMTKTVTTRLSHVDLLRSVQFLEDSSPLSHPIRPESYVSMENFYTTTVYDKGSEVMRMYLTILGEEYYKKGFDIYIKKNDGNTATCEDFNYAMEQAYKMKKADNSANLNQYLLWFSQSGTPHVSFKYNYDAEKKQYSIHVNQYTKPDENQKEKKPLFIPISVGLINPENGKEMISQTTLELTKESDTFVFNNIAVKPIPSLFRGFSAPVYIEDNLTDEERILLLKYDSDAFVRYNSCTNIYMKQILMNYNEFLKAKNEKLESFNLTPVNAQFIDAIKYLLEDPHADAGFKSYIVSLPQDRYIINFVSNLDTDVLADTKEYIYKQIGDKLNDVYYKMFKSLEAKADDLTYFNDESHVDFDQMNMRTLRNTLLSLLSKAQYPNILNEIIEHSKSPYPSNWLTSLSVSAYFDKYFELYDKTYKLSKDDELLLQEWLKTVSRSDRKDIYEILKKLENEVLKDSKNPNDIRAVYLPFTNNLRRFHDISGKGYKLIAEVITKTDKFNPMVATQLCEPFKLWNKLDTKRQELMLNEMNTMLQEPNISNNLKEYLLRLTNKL

[19] = molecular target: T5, X-box-binding protein 1 (Homo sapiens, UniProt P17861); type: functional, Cricetulus griseus;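 further: confirmatory dose-response counter-screen serving a CHOP assay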
T5 sequence (P17861 whole entry): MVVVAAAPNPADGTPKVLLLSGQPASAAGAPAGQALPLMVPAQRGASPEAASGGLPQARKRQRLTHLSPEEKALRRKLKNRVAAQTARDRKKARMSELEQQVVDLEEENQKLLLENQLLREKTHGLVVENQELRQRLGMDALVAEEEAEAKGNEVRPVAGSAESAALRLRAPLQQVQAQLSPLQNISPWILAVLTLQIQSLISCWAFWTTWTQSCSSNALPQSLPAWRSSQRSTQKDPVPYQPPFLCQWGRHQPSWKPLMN

Sequence of Procathepsin L (P07711 whole entry): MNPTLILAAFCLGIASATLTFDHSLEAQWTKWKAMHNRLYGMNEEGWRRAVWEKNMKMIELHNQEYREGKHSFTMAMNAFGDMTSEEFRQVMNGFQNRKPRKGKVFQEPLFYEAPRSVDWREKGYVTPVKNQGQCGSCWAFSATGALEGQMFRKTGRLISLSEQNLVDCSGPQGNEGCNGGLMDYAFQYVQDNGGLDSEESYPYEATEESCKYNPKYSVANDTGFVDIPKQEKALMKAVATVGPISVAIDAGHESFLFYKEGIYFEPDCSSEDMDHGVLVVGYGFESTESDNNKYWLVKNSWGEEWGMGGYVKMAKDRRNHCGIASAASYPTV
Sequence of Paired box protein Pax-8 (Q06710 whole entry): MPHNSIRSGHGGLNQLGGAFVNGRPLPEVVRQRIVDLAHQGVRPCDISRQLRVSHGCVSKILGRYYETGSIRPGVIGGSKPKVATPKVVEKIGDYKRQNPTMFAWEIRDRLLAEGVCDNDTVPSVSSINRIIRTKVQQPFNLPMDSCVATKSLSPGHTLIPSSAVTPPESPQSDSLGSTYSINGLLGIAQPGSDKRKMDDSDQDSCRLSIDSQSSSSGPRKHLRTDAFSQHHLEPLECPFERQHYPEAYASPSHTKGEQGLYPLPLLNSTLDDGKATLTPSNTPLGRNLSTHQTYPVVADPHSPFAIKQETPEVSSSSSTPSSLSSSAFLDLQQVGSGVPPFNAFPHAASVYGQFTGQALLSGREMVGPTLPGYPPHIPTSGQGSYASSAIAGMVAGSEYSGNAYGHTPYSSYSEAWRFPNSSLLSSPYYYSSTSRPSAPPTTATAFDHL

With `C[C@@H]1CN([C@H](C)CO)C(=O)c2cccc(NC(=O)C3CCCCC3)c2O[C@H]1CN(C)Cc1ccc(Cl)c(Cl)c1` the AC50 [1] was 3.93 µM (active).

In the case of `C=CCc1cccc(/C=N/NC(=O)CNc2ccccc2)c1O`, the EC50 [2] is reported as > 120 µM (not active), the EC50 [3] is reported as 10.7 µM (active) and the EC50 [4] is reported as > 120 µM (not active). For the same compound, the IC50 [5] was > 50 µM (not active).

In the case of `Cc1ccc(-n2c(C)cc(C(=O)COC(=O)c3ccc[nH]c3=O)c2C)cc1`, the IC50 [6] is reported as 1.22 µM (active), the IC50 [7] is reported as > 73.5 µM (not active) and the IC50 [8] is reported as > 59.6 µM (not active).

For `O=C(Nc1ccccc1N1CCN(C(=O)c2ccccc2)CC1)c1ccc(Br)o1`, the EC50 [9] was 0.596 µM (active), the AC50 [10] was 10.2 µM (active) and the AC50 [11] was 12.1 µM (active). The AC50 [12] was 15.2 µM (active) and the AC50 [13] was 11 µM (active).

For `C=C1C(=O)[C@@]23[C@H](O)C[C@@H]4C(C)(C)CC[C@H](O)[C@]4(C)[C@@H]2C[C@H](O)[C@@H]1[C@H]3O`, the CC50 [14] was 14.9 µM (active), the AC50 [15] was 2.95 µM (active) and the AC50 [16] was 18.3 µM (active). The AC50 [17] was 3.37 µM (active).

For `O=C(Nn1c(Cc2cccs2)nc2ccccc2c1=O)c1cccs1`, the IC50 [7] was > 73.5 µM (not active), the IC50 [18] was 11.9 µM (active) and the IC50 [8] was > 59.6 µM (not active).

In the case of `CCC(=O)N1N=C(c2c(O)nc3ccc(Cl)cc3c2-c2ccccc2)CC1c1ccco1` (configuration not stated), the CC50 [14] is reported as 73.3 µM (active) and the “Absolute IC50 (XBP1)” value [19] is reported as 10 µM.
